Experiments:
HDAC6 = target: T1, HDAC6 (Homo sapiens, UniProt Q9UBN7); assay: Human HDAC enzyme inhibitor Fluor-De-Lys assay, HDAC6; format: biochemical; settings: 1.3 nM total enzyme, 2.5 μM substrate BML-KI104, 3 hours pre-incubation, 60 min reaction, 23° C., 4-parameter fit
T1 sequence (Q9UBN7 1-1215): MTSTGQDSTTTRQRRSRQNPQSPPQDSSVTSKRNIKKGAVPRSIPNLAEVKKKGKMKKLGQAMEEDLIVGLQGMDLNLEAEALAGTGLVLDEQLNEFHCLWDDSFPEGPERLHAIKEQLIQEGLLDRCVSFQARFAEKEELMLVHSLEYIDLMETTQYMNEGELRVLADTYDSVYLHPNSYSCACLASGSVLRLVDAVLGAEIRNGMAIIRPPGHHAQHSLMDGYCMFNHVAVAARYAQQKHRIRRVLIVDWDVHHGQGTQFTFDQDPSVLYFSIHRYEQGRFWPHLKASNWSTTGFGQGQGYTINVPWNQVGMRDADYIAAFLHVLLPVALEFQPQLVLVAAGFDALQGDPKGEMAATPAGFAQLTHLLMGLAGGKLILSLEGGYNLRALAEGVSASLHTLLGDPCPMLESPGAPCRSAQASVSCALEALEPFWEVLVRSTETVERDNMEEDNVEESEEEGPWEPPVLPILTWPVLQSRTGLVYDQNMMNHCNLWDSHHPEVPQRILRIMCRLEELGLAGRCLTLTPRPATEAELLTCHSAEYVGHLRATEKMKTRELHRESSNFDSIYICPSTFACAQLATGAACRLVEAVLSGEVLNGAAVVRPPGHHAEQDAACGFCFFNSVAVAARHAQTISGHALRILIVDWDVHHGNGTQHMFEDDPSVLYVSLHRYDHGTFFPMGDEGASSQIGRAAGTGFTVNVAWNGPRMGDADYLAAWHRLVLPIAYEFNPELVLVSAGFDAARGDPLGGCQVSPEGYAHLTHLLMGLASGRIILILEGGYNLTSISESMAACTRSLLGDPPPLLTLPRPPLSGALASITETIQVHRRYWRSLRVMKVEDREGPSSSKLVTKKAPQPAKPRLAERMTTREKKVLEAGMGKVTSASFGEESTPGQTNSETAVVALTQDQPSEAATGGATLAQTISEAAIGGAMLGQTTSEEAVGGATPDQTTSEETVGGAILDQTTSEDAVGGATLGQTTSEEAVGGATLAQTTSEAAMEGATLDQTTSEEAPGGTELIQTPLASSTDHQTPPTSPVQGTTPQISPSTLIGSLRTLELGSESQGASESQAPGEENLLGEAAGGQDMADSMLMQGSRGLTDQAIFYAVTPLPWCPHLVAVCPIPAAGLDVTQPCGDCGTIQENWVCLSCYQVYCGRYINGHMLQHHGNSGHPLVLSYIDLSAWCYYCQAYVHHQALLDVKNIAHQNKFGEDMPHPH
Excerpt: (§1) Human HDAC Enzyme Inhibitor Fluor-De-Lys Assay Materials
Recombinant human HDAC8 (BML-SE145-0100) and HDAC10 (BML-SE559-0050) enzymes, HDAC substrates BML-KI104 and BML-K1178, and HDAC developer solutions BML-KI105 and BML-KI176 were purchased from Enzo Life Sciences. […] HDAC inhibitor suberoylanilide hydroxamic acid (SAHA) was obtained from Indofine and trichostatin A (TSA) was obtained from Sigma-Aldrich.
(§2) The histone deacetylase activities of HDAC1, HDAC2, HDAC3, HDAC6, and HDAC8 were measured in modified FLUOR DE LYS assays in 384-well format. In this assay, HDAC enzymes are initially incubated with an F-acetyl (or -trifluoroacetyl)-L-lysine-containing substrate with a C-terminal amide having aminomethylcoumarin as the amine component. HDACs cleave the F-acetyl group, rendering the resulting product susceptible to AMC cleavage by trypsin. The released AMC is then detected by its fluorescence.
(§3) The HDAC3/SMRT assay employed buffer B, consisting of 20 mM HEPES, pH 8.0, 1 mM MgCl2, 50 mM NaCl, 2.7 mM KCl, 0.05% BSA, 0.005% Tween 20, and 10 μM IP4. […] The HDAC8 assay employed buffer D, consisting of 20 mM HEPES, pH 8.0, 1 mM MgCl2, 100 mM NaCl, 20 mM KCl, 0.1% n-octyl-β-D-glucoside (Anatrace) and 0.05% BSA. All steps were performed at room temperature (23° C.). The assay was performed by pre-incubating serial dilutions of test compounds with the target HDAC prior to initiation with substrate. Each compound was titrated in a 10-point dose response, using a 1:3 fold dilution scheme, with 0.15 ul of solution added by ECHO555 to the plate, followed by the addition of 20 μl of the appropriate HDAC isoform diluted in appropriate assay buffer. […] Final conditions used for each assay were: 1. […] The reactions were stopped and developed by addition of 30 ul of HDAC developer solution containing a saturating level of HDAC inhibitor as follows: 1.

human HDAC1 = human HDAC1 (Homo sapiens, UniProt Q13547); assay: Human HDAC enzyme inhibitor Fluor-De-Lys assay, HDAC1
human HDAC1, sequence (Q13547 whole entry): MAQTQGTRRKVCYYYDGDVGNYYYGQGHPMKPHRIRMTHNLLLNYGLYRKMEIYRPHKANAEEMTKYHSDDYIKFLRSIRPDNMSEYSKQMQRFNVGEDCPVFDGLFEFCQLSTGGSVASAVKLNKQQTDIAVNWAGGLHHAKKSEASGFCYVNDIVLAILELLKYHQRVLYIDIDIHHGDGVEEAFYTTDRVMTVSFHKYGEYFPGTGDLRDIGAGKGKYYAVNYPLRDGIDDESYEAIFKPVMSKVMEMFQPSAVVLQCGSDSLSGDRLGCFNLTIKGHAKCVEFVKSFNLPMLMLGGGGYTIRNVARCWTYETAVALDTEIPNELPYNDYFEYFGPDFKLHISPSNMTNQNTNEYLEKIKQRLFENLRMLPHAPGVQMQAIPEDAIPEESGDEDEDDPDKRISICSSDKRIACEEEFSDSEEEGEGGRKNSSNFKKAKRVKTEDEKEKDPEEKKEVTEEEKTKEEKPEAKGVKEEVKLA
Description: as §1, §2, §3

human HDAC2 = human HDAC2 (Homo sapiens, UniProt Q92769); assay: Human HDAC enzyme inhibitor Fluor-De-Lys assay, HDAC2
human HDAC2, sequence (Q92769 whole entry): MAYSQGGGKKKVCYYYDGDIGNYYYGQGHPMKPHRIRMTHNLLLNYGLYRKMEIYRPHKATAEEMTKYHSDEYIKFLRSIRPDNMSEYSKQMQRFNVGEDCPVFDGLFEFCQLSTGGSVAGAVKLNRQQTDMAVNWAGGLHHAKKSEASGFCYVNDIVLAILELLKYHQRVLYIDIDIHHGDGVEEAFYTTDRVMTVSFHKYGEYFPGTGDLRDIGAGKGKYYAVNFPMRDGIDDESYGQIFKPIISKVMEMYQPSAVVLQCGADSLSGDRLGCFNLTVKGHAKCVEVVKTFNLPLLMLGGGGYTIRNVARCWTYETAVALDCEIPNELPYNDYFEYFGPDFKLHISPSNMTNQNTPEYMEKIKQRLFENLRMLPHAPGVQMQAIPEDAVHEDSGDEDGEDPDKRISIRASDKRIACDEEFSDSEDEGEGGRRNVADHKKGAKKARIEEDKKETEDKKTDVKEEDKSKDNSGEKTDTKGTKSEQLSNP
Description: as §1, §2, §3

[1] = target: human HDAC3/SMRT heterodimer (Homo sapiens, UniProt O15379); assay: Human HDAC enzyme inhibitor Fluor-De-Lys assay, HDAC3/SMRT
human HDAC3/SMRT heterodimer, sequence (O15379 whole entry): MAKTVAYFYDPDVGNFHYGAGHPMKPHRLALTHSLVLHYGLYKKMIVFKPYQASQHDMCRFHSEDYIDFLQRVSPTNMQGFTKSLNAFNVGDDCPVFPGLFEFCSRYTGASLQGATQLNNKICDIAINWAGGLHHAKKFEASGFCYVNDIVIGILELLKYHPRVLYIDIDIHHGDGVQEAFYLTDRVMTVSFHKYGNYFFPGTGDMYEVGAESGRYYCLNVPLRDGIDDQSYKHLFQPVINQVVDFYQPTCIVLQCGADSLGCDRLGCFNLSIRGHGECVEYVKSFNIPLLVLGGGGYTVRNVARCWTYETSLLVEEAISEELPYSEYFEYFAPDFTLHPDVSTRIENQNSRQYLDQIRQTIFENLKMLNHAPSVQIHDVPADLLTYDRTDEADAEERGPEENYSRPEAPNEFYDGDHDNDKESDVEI
human HDAC3/SMRT heterodimer, sequence (Q9Y618 1-899 partner limits assumed): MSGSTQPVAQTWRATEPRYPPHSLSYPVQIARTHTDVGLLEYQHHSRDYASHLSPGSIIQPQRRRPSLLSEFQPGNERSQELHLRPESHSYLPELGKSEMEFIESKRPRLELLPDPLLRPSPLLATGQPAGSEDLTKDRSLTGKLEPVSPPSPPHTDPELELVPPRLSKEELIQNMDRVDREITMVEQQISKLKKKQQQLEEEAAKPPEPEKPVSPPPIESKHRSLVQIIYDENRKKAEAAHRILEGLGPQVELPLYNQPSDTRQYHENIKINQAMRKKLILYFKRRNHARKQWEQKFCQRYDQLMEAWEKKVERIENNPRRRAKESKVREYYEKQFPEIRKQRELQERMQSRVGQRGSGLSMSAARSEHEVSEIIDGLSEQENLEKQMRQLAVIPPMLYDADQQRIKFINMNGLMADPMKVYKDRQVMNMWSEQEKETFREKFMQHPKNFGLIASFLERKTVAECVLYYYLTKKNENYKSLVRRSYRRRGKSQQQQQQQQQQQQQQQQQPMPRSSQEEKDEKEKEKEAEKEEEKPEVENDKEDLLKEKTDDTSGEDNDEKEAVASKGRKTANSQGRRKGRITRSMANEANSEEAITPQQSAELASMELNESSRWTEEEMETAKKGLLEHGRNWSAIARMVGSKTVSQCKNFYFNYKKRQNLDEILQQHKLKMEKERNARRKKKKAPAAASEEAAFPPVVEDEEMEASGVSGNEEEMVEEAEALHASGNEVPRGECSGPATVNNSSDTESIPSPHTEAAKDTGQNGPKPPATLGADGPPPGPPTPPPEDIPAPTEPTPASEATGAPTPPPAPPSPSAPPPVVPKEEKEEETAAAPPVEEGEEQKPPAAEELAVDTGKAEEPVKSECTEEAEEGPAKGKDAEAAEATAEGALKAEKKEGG
Description: as §1, §2, §3

SMILES | IC50 (HDAC6) [µM] | IC50 (human HDAC1) [µM] | IC50 (human HDAC2) [µM] | IC50 [1] [µM]
CSc1cc(F)ccc1C(=O)NCCCC[C@H](NC(=O)c1cncs1)c1ncc(-c2ccc3ccccc3c2)[nH]1 [Example 5, (S)-N-(5-(4-fluoro-2-(methylthio)benzamido)-1-(5-(naphthalen-2-yl)-1H-imidazol-2-yl)pentyl)thiazole-5-carboxamide] | ≥ 45 |  |  | 
Nc1ccc(F)c(F)c1C(=O)NCCCC[C@H](NC(=O)c1cncs1)c1ncc(-c2ccc3ccccc3c2)[nH]1 [Example 9, (S)-N-(5-(6-amino-2,3-difluorobenzamido)-1-(5-(naphthalen-2-yl)-1H-imidazol-2-yl)pntyl)thiazole-5-carboxamide] | ≥ 45 | 7.88 | 15.7 | 0.1
Nc1cc(F)c(F)cc1C(=O)NCCCC[C@H](NC(=O)c1cncs1)c1ncc(-c2ccc3ccccc3c2)[nH]1 [Example 27, (S)-N-(5-(2-amino-4,5-difluorobenzamido)-1-(5-(naphthalen-2-yl)-1H-imidazol-2-yl)pentyl)thiazole-5-carboxamide] | ≥ 45 |  |  | 
CSc1cc([N+](=O)[O-])ccc1C(=O)NCCCC[C@H](NC(=O)c1cncs1)c1ncc(-c2ccc3ccccc3c2)[nH]1 [Example 43, (S)-N-(5-(2-(methylthio)-4-nitrobenzamido)-1-(5-(naphthalen-2-yl)-1H-imidazol-2-yl)pentyl)thiazole-5-carboxamide] |  | ≥ 45 | ≥ 45 | 7
COc1ccc2[nH]c(C)c(C(C)C(=O)N[C@@H](CCCCNC(=O)c3ccccc3SC)c3ncc(-c4cc5ccccc5nc4OC)[nH]3)c2c1 (stereo partly drawn) [Example 58, N-((5S)-5-(2-(5-methoxy-2-methyl-1H-indol-3-yl)propanamido)-5-(5-(2-methoxyquinolin-3-yl)-1H-imidazol-2-yl)pentyl)-2-(methylthio)benzamide] |  | ≥ 45 | ≥ 45 | 0.379
CCN1CCC2(CC1)C[C@@H]2C(=O)N[C@@H](CCCCNC(=O)c1ccccc1SC)c1ncc(-c2cc3ccccc3nc2OC)[nH]1 [Example 60, (S)-6-ethyl-N-((S)-1-(5-(2-methoxyquinolin-3-yl)-1H-imidazol-2-yl)-5-(2-(methylthio)benzamido)pentyl)-6-azaspiro[2.5]octane-1-carboxamide] | 11.6 |  |  | 
COc1nc2ccccc2cc1-c1cnc([C@H](CCCCNC(=O)c2nc(C)ccc2O)NC(=O)c2cncs2)[nH]1 [Example 61, (S)-N-(5-(3-hydroxy-6-methylpicolinamido)-1-(5-(2-methoxyquinolin-3-yl)-1H-imidazol-2-yl)pentyl)thiazole-5-carboxamide] | ≥ 45 |  |  | 
COc1nc2ccccc2cc1-c1cnc(C2(CCCCNC(=O)c3ccccc3SC)CCC(=O)N2)[nH]1 (centres unmarked) [Example 62, N-(4-(2-(5-(2-methoxyquinolin-3-yl)-1H-imidazol-2-yl)-5-oxopyrrolidin-2-yl)butyl)-2-(methylthio)benzamide] |  | ≥ 45 | ≥ 45 | 0.671
COc1nc2ccccc2cc1-c1cnc(C2(CCCCNC(=O)c3ccc(F)cc3SC)CCC(=O)N2)[nH]1 (centres unmarked) [Example 63] |  | ≥ 45 | ≥ 45 | 0.958

Source: US12281109B2 (Merck Sharp & Dohme LLC, priority 2019, dated 2025)
